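Interpolation was linear, between the two tested concentrations surrounding the appropriate level; five concentrations were tested over 48 hours in 96-well plates. TGI is the concentration that stops growth completely.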
How the values were obtained:
Assay in all cases: NCI anticancer screen, dose series, 48 h
[1] = test system: UACC-62 melanoma
[2] = test system: DMS 273 small cell lung
[3] = test system: NCI-H460 lung
[4] = test system: OVCAR-5 ovarian
[5] = test system: SK-OV-3 ovarian
[6] = test system: TK-10 renal
[7] = test system: SK-MEL-28 melanoma
[8] = test system: SF-539 CNS
[9] = test system: OVCAR-3 ovarian
[10] = test system: NCI-H522 lung
[11] = test system: COLO 205 colon
[12] = test system: CAKI-1 renal
[13] = test system: CCRF-CEM leukemia
[14] = test system: LXFL 529 NSCLC
[15] = test system: 786-0 renal
[16] = test system: U251 CNS
[17] = test system: K-562 leukemia
[18] = test system: SW-620 colon
[19] = test system: SNB-75 CNS
[20] = test system: IGROV1 ovarian
[21] = test system: NCI-H226 lung
[22] = test system: M14 melanoma
[23] = test system: SF-268 CNS
[24] = test system: HOP-92 NSCLC
[25] = test system: SNB-78 CNS
[26] = test system: SNB-19 CNS
[27] = test system: SK-MEL-5 melanoma
[28] = test system: DLD-1 colon
[29] = test system: MOLT-4 leukemia
[30] = test system: A549 NSCLC
[31] = test system: SK-MEL-2 melanoma
[32] = test system: HCT-116 colon
[33] = test system: RXF 393 renal
[34] = test system: SF-295 CNS
[35] = test system: UO-31 renal
[36] = test system: NCI-H23 lung
[37] = test system: KM20L2 colon
[38] = test system: SR leukemia
[39] = test system: SN12C renal
[40] = test system: OVCAR-8 ovarian
[41] = test system: OVCAR-4 ovarian
[42] = test system: HCC-2998 colon
[43] = test system: HT29 colon
[44] = test system: KM12 colon
[45] = test system: EKVX NSCLC
[46] = test system: MALME-3M melanoma
[47] = test system: HOP-62 NSCLC
[48] = test system: ACHN renal
[49] = test system: XF 498 CNS
[50] = test system: LOX IMVI melanoma
[51] = test system: HOP-18 NSCLC
[52] = test system: A498 renal
[53] = test system: HL-60(TB) leukemia
[54] = test system: DMS 114 small cell lung
[55] = test system: HCT-15 colon
[56] = test system: UACC-257 melanoma
[57] = test system: M19-MEL melanoma
[58] = test system: RPMI-8226 leukemia

SMILES: CCC1(C)NN=c2s/c(=C/c3ccc(OC)cc3)c(=O)n2N1 (stereo not given)
- TGI [1]: > 100 µM
- TGI [2]: > 100 µM
- TGI [3]: > 100 µM
- TGI [4]: > 100 µM
- TGI [5]: > 100 µM
- TGI [6]: > 100 µM
- TGI [7]: > 100 µM
- TGI [8]: > 100 µM
- TGI [9]: > 100 µM
- TGI [10]: > 100 µM
- TGI [11]: > 100 µM
- TGI [12]: > 100 µM
- TGI [13]: > 100 µM
- TGI [14]: > 100 µM
- TGI [15]: > 100 µM
- TGI [16]: > 100 µM
- TGI [17]: > 100 µM
- TGI [18]: > 100 µM
- TGI [19]: > 100 µM
- TGI [20]: > 100 µM
- TGI [21]: > 100 µM
- TGI [22]: > 100 µM
- TGI [23]: > 100 µM
- TGI [24]: 96.3 µM
- TGI [25]: > 100 µM
- TGI [26]: > 100 µM
- TGI [27]: > 100 µM
- TGI [28]: > 100 µM
- TGI [29]: > 100 µM
- TGI [30]: > 100 µM
- TGI [31]: > 100 µM
- TGI [32]: > 100 µM
- TGI [33]: > 100 µM
- TGI [34]: > 100 µM
- TGI [35]: > 100 µM
- TGI [36]: > 100 µM
- TGI [37]: > 100 µM
- TGI [38]: > 100 µM
- TGI [39]: > 100 µM
- TGI [40]: > 100 µM
- TGI [41]: > 100 µM
- TGI [42]: > 100 µM
- TGI [43]: > 100 µM
- TGI [44]: > 100 µM
- TGI [45]: > 100 µM
- TGI [46]: > 100 µM
- TGI [47]: > 100 µM
- TGI [48]: > 100 µM
- TGI [49]: > 100 µM
- TGI [50]: > 100 µM

SMILES: NNC(=S)N/N=C(\CCCC(=O)NCCc1ccccc1)CC(=O)c1ccccc1
- TGI [1]: > 100 µM
- TGI [51]: > 100 µM
- TGI [3]: > 100 µM
- TGI [52]: > 100 µM
- TGI [53]: > 100 µM
- TGI [4]: > 100 µM
- TGI [6]: > 100 µM
- TGI [7]: > 100 µM
- TGI [8]: > 100 µM
- TGI [9]: > 100 µM
- TGI [10]: > 100 µM
- TGI [54]: > 100 µM
- TGI [11]: > 100 µM
- TGI [14]: > 100 µM
- TGI [15]: > 100 µM
- TGI [16]: > 100 µM
- TGI [55]: > 100 µM
- TGI [18]: > 100 µM
- TGI [20]: > 100 µM
- TGI [56]: > 100 µM
- TGI [22]: > 100 µM
- TGI [23]: > 100 µM
- TGI [24]: > 100 µM
- TGI [25]: > 100 µM
- TGI [26]: > 100 µM
- TGI [27]: > 100 µM
- TGI [28]: > 100 µM
- TGI [30]: > 100 µM
- TGI [31]: > 100 µM
- TGI [32]: > 100 µM
- TGI [33]: > 100 µM
- TGI [34]: > 100 µM
- TGI [35]: > 100 µM
- TGI [36]: > 100 µM
- TGI [37]: > 100 µM
- TGI [38]: > 100 µM
- TGI [39]: > 100 µM
- TGI [40]: > 100 µM
- TGI [41]: > 100 µM
- TGI [42]: > 100 µM
- TGI [43]: > 100 µM
- TGI [44]: > 100 µM
- TGI [57]: > 100 µM
- TGI [45]: > 100 µM
- TGI [46]: > 100 µM
- TGI [47]: > 100 µM
- TGI [48]: > 100 µM

SMILES: Cc1ccc(C)c(NC(=O)C(=O)CC(=O)C2CCOC2=O)c1 (stereo not given)
- TGI [1]: > 100 µM
- TGI [2]: > 100 µM
- TGI [3]: > 100 µM
- TGI [52]: > 100 µM
- TGI [53]: > 100 µM
- TGI [4]: > 100 µM
- TGI [58]: > 100 µM
- TGI [5]: > 100 µM
- TGI [6]: > 100 µM
- TGI [7]: > 100 µM
- TGI [8]: > 100 µM
- TGI [9]: > 100 µM
- TGI [10]: > 100 µM
- TGI [54]: > 100 µM
- TGI [11]: > 100 µM
- TGI [12]: > 100 µM
- TGI [13]: > 100 µM
- TGI [14]: > 100 µM
- TGI [15]: > 100 µM
- TGI [16]: > 100 µM
- TGI [55]: > 100 µM
- TGI [17]: > 100 µM
- TGI [18]: > 100 µM
- TGI [19]: > 100 µM
- TGI [20]: > 100 µM
- TGI [21]: > 100 µM
- TGI [56]: > 100 µM
- TGI [22]: > 100 µM
- TGI [23]: > 100 µM
- TGI [24]: > 100 µM
- TGI [25]: > 100 µM
- TGI [26]: > 100 µM
- TGI [27]: > 100 µM
- TGI [28]: > 100 µM
- TGI [30]: > 100 µM
- TGI [31]: > 100 µM
- TGI [32]: > 100 µM
- TGI [33]: > 100 µM
- TGI [34]: > 100 µM
- TGI [35]: > 100 µM
- TGI [36]: > 100 µM
- TGI [37]: > 100 µM
- TGI [39]: > 100 µM
- TGI [40]: > 100 µM
- TGI [41]: > 100 µM
- TGI [43]: > 100 µM
- TGI [44]: > 100 µM
- TGI [57]: > 100 µM
- TGI [45]: > 100 µM
- TGI [46]: > 100 µM
- TGI [47]: > 100 µM
- TGI [48]: > 100 µM
- TGI [49]: > 100 µM
- TGI [50]: > 100 µM

SMILES: COC(=O)Cc1cc(OC)c(OC)cc1Br
- TGI [1]: > 100 µM
- TGI [3]: > 100 µM
- TGI [52]: > 100 µM
- TGI [53]: > 100 µM
- TGI [4]: > 100 µM
- TGI [58]: > 100 µM
- TGI [5]: > 100 µM
- TGI [6]: > 100 µM
- TGI [7]: > 100 µM
- TGI [9]: > 100 µM
- TGI [10]: > 100 µM
- TGI [54]: > 100 µM
- TGI [11]: > 100 µM
- TGI [12]: > 100 µM
- TGI [13]: > 100 µM
- TGI [14]: > 100 µM
- TGI [15]: > 100 µM
- TGI [16]: > 100 µM
- TGI [17]: > 100 µM
- TGI [18]: > 100 µM
- TGI [19]: > 100 µM
- TGI [21]: > 100 µM
- TGI [56]: > 100 µM
- TGI [22]: > 100 µM
- TGI [23]: > 100 µM
- TGI [24]: > 100 µM
- TGI [25]: > 100 µM
- TGI [26]: > 100 µM
- TGI [28]: > 100 µM
- TGI [29]: > 100 µM
- TGI [30]: > 100 µM
- TGI [31]: > 100 µM
- TGI [32]: > 100 µM
- TGI [34]: > 100 µM
- TGI [35]: > 100 µM
- TGI [36]: > 100 µM
- TGI [37]: > 100 µM
- TGI [38]: > 100 µM
- TGI [39]: > 100 µM
- TGI [40]: > 100 µM
- TGI [41]: > 100 µM
- TGI [42]: > 100 µM
- TGI [43]: > 100 µM
- TGI [44]: > 100 µM
- TGI [57]: > 100 µM
- TGI [45]: > 100 µM
- TGI [46]: > 100 µM
- TGI [47]: > 100 µM
- TGI [48]: > 100 µM

Reference: PubChem BioAssay (NCI)
